Source: patent publication US5637619A, “Antitumor 2-aminocarbonyl-1, 2-bis(methylsulfonyl)-1-(substituted)hydrazines” (Yale University, priority 1995, dated 1997)

Legend:
[1] = Body weight change / toxicity in L1210-bearing mice; type: in vivo, mice (CD2F1); details: L1210-bearing mice
Experimental: (§1) Leukemia L1210 cells were obtained from the Frederick Cancer Research Facility, Division of Cancer Treatment Tumor Repository of the National Cancer Institute, and were maintained by serial passage in tissue culture. Every 8 weeks, tumor cells were injected intraperitoneally into five donor CD2 F1 mice 8- to 10- weeks of age and were allowed to grow for 7 days. The peritoneal fluid was withdrawn and the suspension was centrifuged for 5 min at 1600 g. The supernatant was decanted and 10^5 cells/mL were seeded into 10 mL of RPMI 1640 medium supplemented with 10% fetal bovine serum and 1% L-glutamine, and once again maintained in culture. To assay for antineoplastic activity, 0.1 mL of the cell suspension containing 10^5 L1210 leukemia cells was injected ip into each recipient mouse. Test compounds were administered over a wide range of dosage levels, beginning 24 h after tumor implantation, and continued once daily for 6 consecutive days. All drugs were administered ip as a solution in 100% dimethylsulfoxide (DMSO), in a volume not exceeding 0.025 mL. […] Mice were weighed during the course of the experiments, and the percentage change in body weight from onset to termination of therapy was used as an indication of drug toxicity. Determination of the sensitivity of neoplasms to these agents was based upon the prolongation of survival time afforded by the drug treatments.
(§2) ^a Administered ip once daily for six consecutive days, beginning 24 hours after tumor implantation, with 5-10 mice being used per group. ^b Average percent change in body weight from onset to termination of therapy. ^c % T/C=average survival time of treated/control mice×100; cures (>60-day survivors) are listed separately and are not included in this calculation.

L1210 leukemia = L1210 leukemia survival time in mice (ip implanted); type: in vivo, mice (CD2F1); details: for %T/C (average survival time treated/control × 100): cures not included
Experimental: as §1, §2

M109 lung carcinoma = assay: M109 lung carcinoma, sc implanted; type: in vivo, BALB/c mice
Experimental: (§3) The M5076 reticulum cell sarcoma was passaged biweekly by sc transfer of tumor fragments into C57BL/6 mice, and the M109 lung carcinoma was similarly passaged in BALB/c mice. The LX-1 human lung carcinoma was passaged sc every two to three weeks in BALB/c-background athymic (nu/nu) mice. For use in these systems, compound III was dissolved in: (a) 100% DMSO and administered by iv injection in a fixed volume of 10 microliters; or (b) DMSO diluted with saline to a final concentration of 10% DMSO and administered iv in a volume of 0.01 milliliter/g of body weight. […] Mitomycin C and cyclophosphamide were dissolved and administered in saline. BCNU and MeCCNU were dissolved in ethanol and diluted 1:9 (v/v) with water prior to administration.
(§4) Five mice per group were employed in experiments with the B16F10 melanoma, and 8 mice per group with the M5076 sarcoma, the M109 carcinoma and the LX-1 carcinoma. A minimum of two dose levels per compound were included in each evaluation and drug therapy was initiated 24 h after tumor implantation for the M5076 sarcoma and M109 carcinoma. In the LX-1 experiment, tumor bearing mice were selected and sorted into treatment and control groups on day 6 post-tumor implant such that all tumor weights ranged from 50-100 mg and median tumor weights per group were reasonably similar. Therapeutic results are presented in terms of: (a) increases in lifespan reflected by the relative median survival time (MST) of treated versus control groups (i.e., %T/C values), and by long-term survivors, and (b) primary tumor growth inhibition (i.e., T-C values) determined by calculating the relative median times for treated (T) and control untreated (C) mice to grow tumors of a 0.5 g size for the LX-1 carcinoma or a 1 g size for the murine neoplasms. Tumor weights were interchangeable with tumor size on the basis of 1 mm^3 =1 mg. […] The activity criterion for tumor inhibition was a delay in tumor growth consistent with one log10 cell kill (LCK). The absolute T-C value needed to attain this level of efficacy varied from experiment to experiment and depended upon the tumor volume doubling time of the control mice in each study. Treated mice dying prior to day 10 in the ip M109 experiment, or dying before their tumors achieved 0.5 g for the LX-1 carcinoma or 1 g in size for all other sc tumor models, were considered to have died from drug toxicity. Groups of mice with more than one death due to drug toxicity were not used in the evaluation of antitumor efficacy. Statistical evaluations of data were performed using Gehan's generalized Wilcoxan test (Gehan, Biometrika, 1965, 52, 203-233).
Compound III was also evaluated against the M109 lung carcinoma implanted subcutaneously (sc). In the initial test using this model, a dose of 50 mg/kg per injection of this compound was administered intravenously (iv) in 10% DMSO in saline every fourth day for a total of three injections. […] Mitomycin C, used as a reference drug, produced a maximum %T/C of 103 and a delay in tumor growth of 10 days (data not shown). A subsequent evaluation of compound III was performed using four different doses on a slightly different schedule, i.e., 24, 32, 48 and 64 mg/kg administered every third day for four total injections, and two vehicles, 10% DMSO in saline and 100% DMSO. […] Cyclophosphamide and mitomycin C were included as reference drugs in the last experiment. The former compound produced a maximum %T/C of 143 and a delay in tumor growth of 8.8 days, while mitomycin C produced a maximum %T/C of 134 and a T-C value of 9.3 days (data not shown). As reported earlier, compound X achieved a maximum %T/C of 136 and a maximum T-C value of 14.5 days against this tumor (Shyam, et al., J. Med. Chem., 1993, 36, 3496).

[2] = test system: M5076 reticulum cell sarcoma; assay: M5076 reticulum cell sarcoma, sc implanted; type: in vivo, C57BL/6 mice; details: 16 mg/kg per injection, iv every fourth day × 3
Experimental: as §3, §4
Compound III was also evaluated against the M5076 reticulum cell sarcoma implanted sc. When administered iv at a level of 48 mg/kg per injection in 100% DMSO every other day for five days, compound III cured 6 out of 8 mice and consequently, no median time (T-C value) to reach 1 gram size tumors was expressed for this group. Tumor growth in mice receiving only 100% DMSO was indistinguishable from that of untreated control animals. 1-(2-Chloroethyl)-3-(4-methylcyclohexyl)-1-nitrosourea (MeCCNU) and BCNU were included in this experiment for comparison. The former achieved a maximum %T/C of 128 and a delay in tumor growth of 33.5 days at 16 mg/kg per injection administered iv every fourth day for three total injections, while BCNU, administered iv on the same treatment schedule, produced a %T/C in excess of 157, with 2 out of 8 cures, and a T-C of >62 days (data not shown).

[3] = reference drugs in last experiment (experiment b)
[4] = reference drug in initial test (experiment a)

SMILES	Av. Wt. Change % ([1]; 5 mg/kg ip once daily × 6)	Av. Wt. Change % ([1]; 10 mg/kg ip once daily × 6)	Av. Wt. Change % ([1]; 15 mg/kg ip once daily × 6)	Av. Wt. Change % ([1]; 20 mg/kg ip once daily × 6)	Av. Wt. Change % ([1]; 25 mg/kg ip once daily × 6)	Av. Wt. Change % ([1]; 50 mg/kg ip once daily × 6)	Av. Wt. Change % ([1]; 100 mg/kg ip once daily × 6)	%T/C (average survival time treated/control × 100) (L1210 leukemia; 5 mg/kg ip once daily × 6)	%T/C (average survival time treated/control × 100) (L1210 leukemia; 10 mg/kg ip once daily × 6)	%T/C (average survival time treated/control × 100) (L1210 leukemia; 15 mg/kg ip once daily × 6)	%T/C (average survival time treated/control × 100) (L1210 leukemia; 20 mg/kg ip once daily × 6)	% 60 Day Survivors (cures) (L1210 leukemia; 50 mg/kg ip once daily × 6)	% 60 Day Survivors (cures) (L1210 leukemia; 10 mg/kg ip once daily × 6)	other results
CCOC(=O)C(Cc1ccccc1)NC(=O)N(N(CCCl)S(C)(=O)=O)S(C)(=O)=O (stereo not shown) [Compound IX, 1,2-Bis(methylsulfonyl)-1-(2-chloroethyl)-2-(1-ethoxycarbonyl-2-phenylethyl)aminocarbonylhydrazine]	-2.5%	-0.5%	-1.9%	-1.9%	-0.9%	-2.0%	-2.0%	147%	165%	160%	174%	60%		Av. Wt. Change % ([1]; 150 mg/kg ip once daily × 6): -5.0%; %T/C (average survival time treated/control × 100) (L1210 leukemia; 25 mg/kg ip once daily × 6): 177%; %T/C (average survival time treated/control × 100) (L1210 leukemia; 50 mg/kg ip once daily × 6): 225%; % 60 Day Survivors (cures) (L1210 leukemia; 100 mg/kg ip once daily × 6): 100%; % 60 Day Survivors (cures) (L1210 leukemia; 150 mg/kg ip once daily × 6): 20%; %T/C (average survival time treated/control × 100) (L1210 leukemia; 150 mg/kg ip once daily × 6): 169%
C=CCNC(=O)N(N(CCCl)S(C)(=O)=O)S(C)(=O)=O [Compound V, 2-Allylaminocarbonyl-1,2-bis(methylsulfonyl)-1-(2-chloroethyl)hydrazine]	-1.6%	-2.1%	-2.9%					184%	394%				40%	% 60 Day Survivors (cures) (L1210 leukemia; 5 mg/kg ip once daily × 6): 20%; % 60 Day Survivors (cures) (L1210 leukemia; 15 mg/kg ip once daily × 6): 100%; antileukemic activity / therapeutic potential (in words) (L1210 leukemia; qualitative, L1210 leukemia in mice): highly efficacious against this tumor
CS(=O)(=O)N(CCCl)N(C(=O)NCCCCl)S(C)(=O)=O [Compound VI, 1,2-Bis(methylsulfonyl)-1-(2-chloroethyl)-2-(3-chloropropyl)aminocarbonylhydrazine]	-2.8%	-5.6%	-8.8%					111%	187%	192%				% 60 Day Survivors (cures) (L1210 leukemia; 15 mg/kg ip once daily × 6): 20%; cure rate (in words) (L1210 leukemia; highest dosage level examined (15 mg/kg × 6)): partial cure rate of tumor-bearing mice
CCOC(=O)CNC(=O)N(N(CCCl)S(C)(=O)=O)S(C)(=O)=O [Compound VII, 1,2-Bis(methylsulfonyl)-1-(2-chloroethyl)-2-(ethoxycarbonylmethyl)aminocarbonylhydrazine]	-1.5%	-1.4%	-0.5%	-3.7%	-0.5%	-2.5%	-4.0%	151%	202%	202%	191%	80%	20%	Av. Wt. Change % ([1]; 75 mg/kg ip once daily × 6): -1.5%; % 60 Day Survivors (cures) (L1210 leukemia; 20 mg/kg ip once daily × 6): 20%; % 60 Day Survivors (cures) (L1210 leukemia; 25 mg/kg ip once daily × 6): 100%; %T/C (average survival time treated/control × 100) (L1210 leukemia; 50 mg/kg ip once daily × 6): 138%; % 60 Day Survivors (cures) (L1210 leukemia; 75 mg/kg ip once daily × 6): 60%; %T/C (average survival time treated/control × 100) (L1210 leukemia; 75 mg/kg ip once daily × 6): 119%; %T/C (average survival time treated/control × 100) (L1210 leukemia; 100 mg/kg ip once daily × 6): 115%
CCOC(=O)C(C)NC(=O)N(N(CCCl)S(C)(=O)=O)S(C)(=O)=O (stereo not shown) [Compound VIII, 1,2-Bis(methylsulfonyl)-1-(2-chloroethyl)-2-(1-ethoxycarbonylethyl)aminocarbonylhydrazine]	-2.0%	-1.4%	-0.5%	-1.5%	-2.5%	-3.3%	-2.5%	170%	178%	185%	227%	100%	20%	Av. Wt. Change % ([1]; 75 mg/kg ip once daily × 6): -2.5%; % 60 Day Survivors (cures) (L1210 leukemia; 25 mg/kg ip once daily × 6): 60%; %T/C (average survival time treated/control × 100) (L1210 leukemia; 25 mg/kg ip once daily × 6): 239%; % 60 Day Survivors (cures) (L1210 leukemia; 75 mg/kg ip once daily × 6): 80%; %T/C (average survival time treated/control × 100) (L1210 leukemia; 75 mg/kg ip once daily × 6): 125%; %T/C (average survival time treated/control × 100) (L1210 leukemia; 100 mg/kg ip once daily × 6): 118%
O=P1(N(CCCl)CCCl)NCCCO1 (stereo not shown) [Cyclophosphamide, cyclophosphamide, reference compound]														delay in tumor growth (T-C) (M109 lung carcinoma; [3]): 8.8 days; maximum %T/C (M109 lung carcinoma; [3]): 143%
CC1CCC(NC(=O)N(CCCl)N=O)CC1 (stereo not shown) [MeCCNU, 1-(2-Chloroethyl)-3-(4-methylcyclohexyl)-1-nitrosourea]														delay in tumor growth (T-C) [2]: 33.5 days; maximum %T/C [2]: 128%
CO[C@@]12[C@H](COC(N)=O)C3=C(C(=O)C(C)=C(N)C3=O)N1C[C@@H]1N[C@@H]12 [Mitomycin C, mitomycin C, reference compound]														delay in tumor growth (T-C) (M109 lung carcinoma; [4]): 10 days; maximum %T/C (M109 lung carcinoma; [4]): 103%; delay in tumor growth (T-C) (M109 lung carcinoma; [3]): 9.3 days; maximum %T/C (M109 lung carcinoma; [3]): 134%
